From patent US20240262842A1, “SMALL MOLECULE INHIBITORS OF KRAS G12C MUTANT” (Merck Sharp & Dohme LLC, priority 2021, published 2024)
Where two headings read alike, the source gives them in different places.

How the values were obtained:
[1] = biological target: T1, interaction between GMPPNP-bound recombinant K-Ras4B G12C mutant protein and cRAF RAS-binding domain (cRAF-RBD) (Homo sapiens, UniProt P01116, G12C); assay: Inhibitory activity on interaction between KRAS G12C and cRAF (Alpha technology)
T1 construct: His-tag (N)
T1 sequence (P01116 with tags, fused parts or gaps isoform P01116-2 G12C): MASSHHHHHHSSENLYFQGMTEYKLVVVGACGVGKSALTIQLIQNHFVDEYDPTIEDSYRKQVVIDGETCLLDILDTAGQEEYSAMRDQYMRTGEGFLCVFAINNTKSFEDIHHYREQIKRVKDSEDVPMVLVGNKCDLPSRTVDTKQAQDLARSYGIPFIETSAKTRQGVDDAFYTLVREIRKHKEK
Outline: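 His-tagged K-Ras4B G12C (aa 1-169), GMPPNP-loaded, preincubated with compound 1 h at 25° C in pH 7.5 Tris buffer with MgCl2, TCEP, Tween 20. cRAF-RBD (aa 50-132) and Alpha reagents then added for 1.5 h; Alpha signal normalised to DMSO (0%) and GDP-bound KRAS (100%); IC50 from dose titration.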

MIA PaCa-2 cells = assay: Growth inhibition activity on KRAS-G12C mutant cell line (CellTiter-Glo 3D); type: cell-based, human; conditions: MIA PaCa-2, 3-day culture with compound
Outline: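 MIA PaCa-2 cells in RPMI1640 with 10% FBS, U-bottom wells, cultured 1 day before compound (0.2% DMSO final), then 3 days at 37 °C, 5% CO2. Viability by CellTiter-Glo 3D luminescence; growth inhibition versus untreated wells gives IC50 (nM).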

[2] = GMPPNP-bound KRAS G12C incubated with compound 25° C. 1 hour, Table 2-1, read-out: IC50
[3] = Homo sapiens, MIA PaCa-2, 72 h, Table 3-1
[4] = IC50, GMPPNP-bound KRAS G12C incubated with compound 25° C. 1 hour, Table 2
[5] = Homo sapiens, MIA PaCa-2, 72 h, Table 3

Row | Structure (SMILES) | IC50 [1, 2] [µM] | IC50 (MIA PaCa-2 cells; Table 3-1) [µM] | IC50 (MIA PaCa-2 cells; [3]) [µM] | IC50 [1, 4] [µM] | IC50 (MIA PaCa-2 cells; [5]) [µM]
1 | CC(O)[C@]1(C)CCCN1C/C=C/C(=O)Nc1c(F)cc(C(=O)c2cc3c4c(cccn24)-c2c(C(F)(F)F)cc4c(ncn4C)c2N(C)CC3)cc1F (single isomer, unassigned) [Example 205] | 0.0295 | 0.00855 | – | – | –
2 | CN1CCc2cc(C(=O)c3cc(F)c(NC(=O)/C=C/CN4[C@@H]5CC[C@H]4[C@H](O)C5)c(F)c3)n3cccc(c23)-c2c(C(F)(F)F)cc3c(ncn3C)c21 (single isomer, unassigned) [Example 206] | 0.0154 | – | 0.0103 | – | –
3 | CN1CCc2cc(C(=O)c3cc(F)c(NC(=O)/C=C/CN4[C@@H]5CC[C@H]4[C@H](O)C5)c(F)c3)n3cccc(c23)-c2c(C(F)(F)F)cc3c(ncn3C)c21 (single isomer, unassigned) [Example 207] | 0.0269 | 0.0112 | – | – | –
4 | Cc1nnc2c3c(c(C(F)(F)F)cn12)-c1cccn2c(C(=O)c4cc(F)c(NC(=O)/C=C/CNC5(C)COC5)c(F)c4)cc(c12)CCN3C (single isomer, unassigned) [Example 216, (E)-N-(4-(10,13-dimethyl-7-(trifluoromethyl)-14,15-dihydro-13H-[1,2,4]-triazolo[4″,3″:1′,2′]pyrido-[3′,4′:2,3]azocino[4,5,6-hi]indolizine-2-carbonyl)-2,6-difluorophenyl)-4-((3-methyloxetan-3-yl)-amino)but-2-enamide] | 0.0576 | – | 0.0233 | – | –
5 | Cc1nnc2c3c(c(C(F)(F)F)cn12)-c1cccn2c(C(=O)c4cc(F)c(NC(=O)/C=C/CNC5(C)CC5)c(F)c4)cc(c12)CCN3C (single isomer, unassigned) [Example 223, (E)-N-(4-(10,13-dimethyl-7-(trifluoromethyl)-14,15-dihydro-13H-[1,2,4]-triazolo[4″,3″:1′,2′]-pyrido[3′,4′:2,3]azocino-[4,5,6-hi]indolizine-2-carbonyl)-2,6-difluoro-phenyl)-4-((1-methyl-cyclopropyl)amino)but-2-enamide] | 0.0201 | – | 0.0237 | – | –
6 | COCc1nc2c3c(c(OC)cc2n1C)-c1cccn2c(C(=O)c4cc(F)c(NC(=O)/C=C/CN[C@H]5CCOC5)c(F)c4)c(C)c(c12)CCN3C (single isomer, unassigned) [Example 231] | 0.101 | – | 0.0734 | – | –
7 | COc1cc2c(nc(C)n2C)c2c1-c1cc(F)cn3c(C(=O)c4cc(F)c(NC(=O)/C=C/CN[C@H]5CCOC5)c(F)c4)cc(c13)CCN2C (single isomer, unassigned) [Example 237] | 0.0114 | – | 0.00277 | – | –
8 | COc1cc2c(nc(C)n2C)c2c1-c1cc(F)cn3c(C(=O)c4cc(F)c(NC(=O)/C=C/CNC5(C)CC5)c(F)c4)cc(c13)CCN2C (single isomer, unassigned) [Example 238] | 0.00876 | – | 0.0027 | – | –
9 | Cc1cnc2c3c(c(C(F)(F)F)cn12)-c1cccn2c(C(=O)c4cc(F)c(NC(=O)/C=C/CN[C@H]5CCOC5)c(F)c4)cc(c12)CCN3C (single isomer, unassigned) [Example 242] | 0.0178 | – | 0.0167 | – | –
10 | COCCn1c(COC)nc2c3c(c(OC)cc21)-c1cccn2c(C(=O)c4cc(F)c(NC(=O)/C=C/CNC5(C)CC5)c(F)c4)cc(c12)CCN3C (single isomer, unassigned) [Example 244] | 0.0155 | – | 0.01 | – | –
11 | COCCn1c(COC)nc2c3c(c(OC)cc21)-c1cccn2c(C(=O)c4cc(F)c(NC(=O)/C=C/CN[C@H]5CCOC5)c(F)c4)cc(c12)CCN3C (single isomer, unassigned) [Example 247] | 0.0234 | – | 0.0285 | – | –
12 | CO[C@H]1CC[C@H](NC/C=C/C(=O)Nc2c(F)cc(C(=O)c3cn4c5c(cccc35)-c3c(Cl)cccc3OCCCC4)cc2F)CC1 [Example 3, (E)-N-(4-(12-chloro-4,5,6,7-tetrahydrobenzo[2,3][1,6]oxazecino[4,5,6-hi]indole-1-carbonyl)-2,6-difluorophenyl)-4-(((1,4r)-4-methoxycyclohexyl)amino)but-2-enamide] | – | – | – | 2.7 | 4.4
13 | CO[C@H]1CC[C@H](NC/C=C/C(=O)Nc2c(F)cc(C(=O)c3cn4c5c(cccc35)-c3c(C)cccc3OCC4)cc2F)CC1 [Example 6, (E)-N-(2,6-difluoro-4-(10-methyl-4,5-dihydrobenzo[7,8][1,4]oxazocino[6,5,4-hi]indole-1-carbonyl)phenyl)-4-(((1r,4r)-4-methoxycyclohexyl)amino)but-2-enamide] | – | – | – | 0.16 | 0.67
14 | CO[C@H]1CC[C@H](NC/C=C/C(=O)Nc2c(F)cc(C(=O)c3cn4c5c(cccc35)-c3c(F)cccc3OCC4)cc2F)CC1 [Example 7] | – | – | – | 0.84 | 1.1
15 | CO[C@H]1CC[C@H](NC/C=C/C(=O)Nc2c(F)cc(C(=O)c3cn4c5c(cccc35)-c3c(Cl)cc(N5CCCC5=O)cc3OCC4)cc2F)CC1 [Example 8, (E)-N-(4-(10-chloro-8-(2-oxopyrrolidin-1-yl)-4,5-dihydrobenzo[7,8][1,4]oxazocino[6,5,4-hi]indole-1-carbonyl)-2,6-difluorophenyl)-4-(((1r,4t)-4-methoxycyclohexyl)amino)but-2-enamide] | – | – | – | 0.15 | 0.16
16 | CO[C@H]1CC[C@H](NC/C=C/C(=O)Nc2c(F)cc(C(=O)c3cn4c5c(cccc35)-c3c(ccc(C#N)c3Cl)OCC4)cc2F)CC1 [Example 9, (E)-N-(4-(10-chloro-9-cyano-4,5-dihydrobenzo[7,8][1:4]oxazocino[6,5,4-hi]indole-1-9 carbonyl)-2,6-difluorophenyl)-4-(((1,4r)-4-methoxycyclohexyl)amino)but-2-enamide] | – | – | – | 1.5 | 0.76
17 | COc1cccc2c1-c1cccc3c(C(=O)c4cc(F)c(NC(=O)/C=C/CN[C@H]5CC[C@H](OC)CC5)c(F)c4)cn(c13)CCO2 [Example 10, (E)-N-(2,6-difluoro-4-(10-methoxy-4,5-dihydrobenzo[7,8][1,4]oxazocino[6,5,4-hi]indole-1-carbonyl)phenyl)-4-(((1,4r)-4-methoxycyclohexyl)amino)but-2-enamide] | – | – | – | 0.15 | 0.23
18 | Cc1cc2c(nc(C)n2C)c2c1-c1cccc3c(C(=O)c4cc(F)c(NC(=O)/C=C/CNC(C)(C)C)c(F)c4)cn(c13)CCO2 [Example 13, (E)-4-(tert-butylamino)-N-(2,6-difluoro-4-(6,8,9-trimethyl-12,13-dihydro-SH-imidazo[4″,5″:3′,4′]benzo[1′,2:7,8][1,4]oxazocino[6,5,4-hi]indole-2-carbonyl)phenyl)but-2-enamide] | – | – | – | 0.017 | 0.059
19 | CO[C@H]1CC[C@H](NC/C=C/C(=O)Nc2c(F)cc(C(=O)c3cn4c5c(cccc35)-c3c(C)cc5c(nc(C)n5C)c3OC4)cc2F)CC1 [Example 16, (E)-N-(2,6-difluoro-4-(2,3,5-trimethyl-3H,12H-imidazo[4″,5″.3′,4′]benzo[1′,2:6,7][1,3]oxazepino[5,4,3-hi]indole-9-carbonyl)phenyl)-4-(((1r,4r)-4-methoxycyclohexyl)amino)but-2-enamide] | – | – | – | 0.1 | 0.056
20 | CO[C@H]1CC[C@H](NC/C=C/C(=O)Nc2c(F)cc(C(=O)c3cn4c5c(cccc35)-c3c(C)cc5c(nc(C)n5C)c3OC[C@H]4C)cc2F)CC1 [Example 17, (E)-N-(2,6-difluoro-4-((R)-6,8,9,13-tetramethyl-12,13-dihydro-8H-imidazo[4″,5″;3′,4′]benzo[1′,2:7,8][1,4]oxazocino[6,5,4-hi]indole-2-carbonyl)phenyl)-4-(((1,4r)-4-methoxycyclohexyl)amino)but-2-enamide] | – | – | – | 1.3 | 0.82
